Results from patent US11312693B2, “Protease inhibitors” (MEDIVIR AB, priority 2008, dated 2022).

What was measured:
[1] = In vivo mouse PK, oral administration (FIG. 1); set-up: species or system male C57BI mice; details: 60 μmol/kg in 1% Methocel A4C, versus Example 2 of WO2008 007107
Description: FIG. 1 depicts plasma concentration against time for male C57BI mice orally administered a compound of the invention or a compound of the prior art.
Various embodiments of the invention will now be described by way of illustration only with reference to the following Examples and FIG. 1 which depicts plasma concentration against time for male C57BI mice orally administered a compound of the invention or a compound of the prior art.

[2] = Metabolic stability in whole blood; assay type: in vitro ADME; details: from CLint
Experimental: Compounds of the invention and the indicated comparative examples were tested for metabolic stability in a cytosol assay in which the compounds were incubated with commercially available human hepatic cytosol fractions and the disappearance of the compound monitored by HPLC or LC/MS. Pooled human liver cytosol fractions are less likely to represent outlier individuals than blood from a single individual and can be stored frozen, unlike whole blood. The cytosol assay thus provides a consistent assay testbed as a guide to the stability of a compound in the in vivo environment, such as when exposed to whole blood.
In short, test compounds (2 μM) are incubated in pooled human liver cytosol (Xenotech LLC Lenexa US, 1 mg/mL protein in 0.1M phosphate buffer, pH 7.4) at 37° centigrade over a one hour period. The incubations are initiated by the addition of 1 mM NADPH co-factor. Timed sub-samples were taken at 0, 20, 40 and 60 minutes and “crash precipitated” by the addition of 3 volumes of ice-cold acetonitrile. The samples were centrifuged at reduced temperature and the supernatants were separated and analyzed by LC-MS-MS.
Alternatively, an analogous stability assay is carried out in human or monkey whole blood and/or commercially available liver microsomes, such as XEN 025.

| in vivo exposure (whether measured as Cmax or AUC) [1] | estimated / calculated whole blood half life [2] | Compound |
| --- | --- | --- |
| very much greater | – | C#C[C@@H]1CN(C(=O)[C@H](CC(C)C)NC(=O)c2ccc(-c3nc(N4CCN(C)CC4)sc3F)cc2)[C@@H]2C(=O)CO[C@H]12 [Example 2, N-[1-6-(ethynyl-3-oxo-hexahydro-furo[3,2-b]pyrrole-4-carbonyl)-3-methyl-butyl]-4-[5-fluoro-2-(4-methyl-piperazin-1-yl)thiazol-4-yl]-benzamide] |
| – | little over an hour | CC(C)C[C@H](NC(=O)c1ccc(-c2csc(N3CCN(C)CC3)n2)cc1)C(=O)N1C[C@@H](C)[C@H]2OCC(=O)[C@H]21 [comparative example] |
